In paper PMC9127186, “Molecular Basis Underlying Hepatobiliary and Renal Excretion of Phenolic Acids of Salvia miltiorrhiza Roots (Danshen)” (Frontiers in Pharmacology, 2022):

How the values were obtained:
rat Bcrp = molecular target: T1, rat Bcrp (Rattus norvegicus, UniProt Q80W57); experiment: Vesicular transport assay, inside-out membrane vesicles expressing rat Bcrp; details: 10 min
T1 sequence (Q80W57 1-657): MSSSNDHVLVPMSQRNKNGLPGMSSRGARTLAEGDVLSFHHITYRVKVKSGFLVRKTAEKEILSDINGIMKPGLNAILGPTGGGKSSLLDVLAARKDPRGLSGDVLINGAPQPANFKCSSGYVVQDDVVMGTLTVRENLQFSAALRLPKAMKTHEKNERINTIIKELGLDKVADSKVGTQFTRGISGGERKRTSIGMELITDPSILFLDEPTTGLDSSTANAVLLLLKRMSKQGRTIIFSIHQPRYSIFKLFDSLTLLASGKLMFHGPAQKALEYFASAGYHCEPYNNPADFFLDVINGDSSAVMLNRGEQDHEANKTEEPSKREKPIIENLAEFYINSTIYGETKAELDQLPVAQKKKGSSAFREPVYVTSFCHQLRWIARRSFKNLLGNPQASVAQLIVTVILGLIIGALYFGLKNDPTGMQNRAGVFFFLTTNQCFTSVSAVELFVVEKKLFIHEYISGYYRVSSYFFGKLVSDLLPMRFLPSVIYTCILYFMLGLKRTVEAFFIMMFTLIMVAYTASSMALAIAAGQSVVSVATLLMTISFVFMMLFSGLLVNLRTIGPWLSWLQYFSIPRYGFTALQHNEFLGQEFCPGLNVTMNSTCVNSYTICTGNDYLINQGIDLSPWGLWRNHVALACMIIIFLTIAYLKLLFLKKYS
Experimental: Inside-out membrane vesicles (5 mg protein/mL), prepared from insect cells expressing human multidrug resistance-associated protein (MRP) 2, MRP3, MRP4, breast cancer resistance protein (BCRP), bile salt export pump (BSEP), and multidrug resistance protein (MDR) one and rat Mrp2, Mrp4, Bcrp, and Bsep, and vesicles (5 mg protein/mL; prepared from the insect cells expressing no ABC transporter; serving as negative control) were obtained from Genomembrane (Kanazawa, Japan).
The test Danshen compounds at 100 µM final concentration were separately incubated with the membrane vesicles for 10 min. Buffer C (50 mM MOPS-tris, 70 mM KCl, 7.5 mM MgCl2, pH 7.0) was used for preincubation and incubation, while buffer D (40 mM MOPS-tris, 70 mM KCl, pH 7.0) was used for vesicle washing. The transport rate (pmol/mg protein/min) of the test Danshen compound was calculated using Equation (2): Transport=(CV×VV)/T/WV (2) where C V, V V, T, and W V represent concentration of the compound in vesicular lysates supernatant (μM), volume of the lysates (μL), incubation time (10 min), and amount of vesicle protein amount per well (0.05 mg), respectively. Differential transport of the test Danshen compound between ATP-containing vesicles and AMP-containing vesicles was defined as net transport ratio (TransportATP/TransportAMP ratio). […] All the incubation samples were analyzed by liquid chromatography/mass spectrometry.

rat Oct3 = molecular target: T2, rat Oct3 (Rattus norvegicus, UniProt O88446); experiment: Cellular transport assay, HEK-293 cells expressing rat Oct3; details: Danshen phenolic acid at 100 μM final concentration, 10 min; rat Oct3-transfected vs mock cells
T2 sequence (O88446 1-551): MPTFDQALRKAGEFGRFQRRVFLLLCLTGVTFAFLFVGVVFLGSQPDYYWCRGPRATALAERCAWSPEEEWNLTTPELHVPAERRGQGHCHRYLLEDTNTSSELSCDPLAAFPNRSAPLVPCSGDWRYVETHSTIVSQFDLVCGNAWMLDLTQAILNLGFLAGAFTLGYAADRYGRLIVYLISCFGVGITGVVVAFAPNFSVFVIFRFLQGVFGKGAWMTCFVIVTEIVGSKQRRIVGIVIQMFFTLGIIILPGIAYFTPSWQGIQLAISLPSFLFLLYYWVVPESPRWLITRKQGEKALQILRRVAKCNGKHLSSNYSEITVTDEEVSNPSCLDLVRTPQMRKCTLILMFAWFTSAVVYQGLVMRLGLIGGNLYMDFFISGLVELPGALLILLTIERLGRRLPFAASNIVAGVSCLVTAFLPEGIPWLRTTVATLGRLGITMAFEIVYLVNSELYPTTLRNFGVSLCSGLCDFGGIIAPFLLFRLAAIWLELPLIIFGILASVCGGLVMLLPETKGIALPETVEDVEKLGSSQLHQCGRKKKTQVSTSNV

human NTCP = molecular target: T3, human NTCP (Homo sapiens, UniProt Q14973); experiment: Cellular transport assay, HEK-293 cells expressing human NTCP; details: Danshen phenolic acid at 100 μM final concentration, 10 min; human NTCP-transfected vs mock cells
T3 sequence (Q14973 1-349): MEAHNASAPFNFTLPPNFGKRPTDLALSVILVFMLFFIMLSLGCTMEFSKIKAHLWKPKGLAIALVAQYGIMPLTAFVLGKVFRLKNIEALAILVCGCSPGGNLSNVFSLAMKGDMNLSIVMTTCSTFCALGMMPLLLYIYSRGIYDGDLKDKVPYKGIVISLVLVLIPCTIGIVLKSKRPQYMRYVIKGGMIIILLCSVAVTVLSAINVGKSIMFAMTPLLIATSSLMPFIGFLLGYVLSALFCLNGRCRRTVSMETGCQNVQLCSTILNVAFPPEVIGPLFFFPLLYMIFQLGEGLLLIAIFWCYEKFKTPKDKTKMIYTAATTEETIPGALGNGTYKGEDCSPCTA

rat Pept1 = molecular target: T4, rat Pept1 (Rattus norvegicus, UniProt P51574); details: 10 min, 100 μM, pH 6
T4 sequence (P51574 1-710): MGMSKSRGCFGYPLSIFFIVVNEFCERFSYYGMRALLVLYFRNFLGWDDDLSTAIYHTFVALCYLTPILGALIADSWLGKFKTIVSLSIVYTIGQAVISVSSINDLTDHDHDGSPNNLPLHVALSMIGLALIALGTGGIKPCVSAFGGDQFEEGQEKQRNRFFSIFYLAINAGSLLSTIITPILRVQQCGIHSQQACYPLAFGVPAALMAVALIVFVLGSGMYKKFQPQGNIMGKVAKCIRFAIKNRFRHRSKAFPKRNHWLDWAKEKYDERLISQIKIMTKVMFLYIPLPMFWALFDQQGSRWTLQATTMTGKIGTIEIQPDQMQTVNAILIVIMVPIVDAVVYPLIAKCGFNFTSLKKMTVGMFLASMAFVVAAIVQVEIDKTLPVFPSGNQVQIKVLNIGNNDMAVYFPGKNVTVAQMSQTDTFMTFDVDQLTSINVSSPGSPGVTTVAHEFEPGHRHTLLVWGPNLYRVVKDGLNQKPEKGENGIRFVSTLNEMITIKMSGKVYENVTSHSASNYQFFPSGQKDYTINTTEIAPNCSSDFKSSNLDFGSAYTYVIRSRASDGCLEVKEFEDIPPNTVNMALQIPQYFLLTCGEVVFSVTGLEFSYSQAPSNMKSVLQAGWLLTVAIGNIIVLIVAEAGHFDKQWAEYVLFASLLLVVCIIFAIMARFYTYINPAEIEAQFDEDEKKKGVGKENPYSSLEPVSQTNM

[1] = Danshen phenolic acid at 100 μM final concentration, rat Bcrp vesicles

Compound	TransportATP/TransportAMP ratio (net transport ratio) (rat Bcrp; [1])	TransportTC/TransportMC ratio (net transport ratio) (rat Oct3)	TransportTC/TransportMC ratio (net transport ratio) (human NTCP)	TransportATP/TransportAMP ratio (net transport ratio) (rat Bcrp; rat, not told, 100 μM, pH 7)	TransportTC/TransportMC ratio (net transport ratio) (rat Pept1)
O=C(/C=C/c1ccc(O)c2c1[C@H](C(=O)O)[C@@H](c1ccc(O)c(O)c1)O2)O[C@H](Cc1ccc(O)c(O)c1)C(=O)O [Lithospermic acid, lithospermic acid]	1.27 ± 0.20	0.81 ± 0.13	2.44 ± 0.13		
O=C(O)c1ccc(O)c(O)c1 [Protocatechuic acid, protocatechuic acid]	0.94 ± 0.21	0.85 ± 0.11	1.26 ± 0.15		
O=C(/C=C/c1ccc(O)c(O)c1)O[C@H](Cc1ccc(O)c(O)c1)C(=O)O [Rosmarinic acid, rosmarinic acid]		0.74 ± 0.24		1.45 ± 0.32	1.14 ± 0.13
O=C(/C=C/c1ccc(O)c(O)c1/C=C/c1ccc(O)c(O)c1)O[C@H](Cc1ccc(O)c(O)c1)C(=O)O [Salvianolic acid A, salvianolic acid A]				1.31 ± 0.04	1.32 ± 0.13
O=C(O)Cc1c(/C=C/C(=O)O[C@H](Cc2ccc(O)c(O)c2)C(=O)O)ccc(O)c1O [Salvianolic acid D, salvianolic acid D]		0.93 ± 0.15	2.09 ± 0.36		
salvianolic acid B	1.13 ± 0.14	0.84 ± 0.31	2.88 ± 0.21		
